Assay results from article PMC3856129, “Cytotoxicity and Genotoxicity Evaluation of Organochalcogens in Human Leucocytes: A Comparative Study between Ebselen, Diphenyl Diselenide, and Diphenyl Ditelluride” (BioMed Research International, 2013).

Assays:
human leucocytes [1] = assay: Trypan's Blue exclusion test (cell viability); format: cell-based; conditions: for decrease in leucocyte viability: 50 μM; for effect on cell viability at lower concentrations: 5 and 10 μM
Description: (§1) 2 mL of dextran 5% (dissolved in Phosphate Buffer Saline 1%) was added to 8 mL of blood. The tube was gently mixed and left to stand at room temperature for 45 min. Afterwards, the supernatant was centrifuged (480 ×g, 10 min) and plasma was discarded. The pellet was washed with erythrocyte lysis solution (NH4Cl 150 mM; NaHCO3 10 mM; EDTA 1 mM) and centrifuged (480 ×g, 2 min). The supernatant was discarded and the pellet was washed twice with 1 mL erythrocyte lysis solution. After the second centrifugation, the pellet was suspended in 2 mL Hank's buffer solution (KCl 5.4 mM; Na2HPO4 0.3 mM; KH2PO4 0.4 mM; NaHCO3 4.2 mM; MgCl2 0.5 mM; NaCl 122.6 mM; D-glicose 10 mM, Tris-HCl 10 mM; CaCl2 1.3 mM; pH 7.4). The concentration of leucocytes was adjusted to 2000 cells/μL.
(§2) Leucocytes were exposed to ebselen, (PhSe)2, and (PhTe)2 at 5, 10, and 50 μM or an equal volume of DMSO (final concentration of 0.5%) during 3 hours at 37°C. Positive control group was treated with hydrogen peroxide (H2O2) 2 mM and sodium azide 1 mM.
Trypan's Blue exclusion test was performed according to Mischel and Shiingi. After 3 hours of incubation, 50 μL of Trypan's Blue 0.4% was mixed with 50 μL of leucocytes and left to stand at room temperature for 5 minutes. Cell viability was determined microscopically (400x magnification) and expressed as number of viable cells divided by the total number of cells multiplied by 100.

human leucocytes [2] = assay: Comet Assay (DNA damage index); format: cell-based; conditions: 3 hours at 37°C, compared to the control group
Description: as §1, §2
Comet Assay was performed according to Collins with some modifications. After three hours of incubation, 15 μL of the sample was mixed with 90 μL of low-melting point agarose 0.75% and placed in a slide precoated with agarose 1%. A coverslip was added and the samples were left to solidify at 4°C. The coverslips were removed and the slides were placed on a lysis solution (NaCl 2.5 M; EDTA 100 mM; Tris-HCl 8 mM; Triton X-100 1%; pH 10–10.5) during 24 hours at 4°C. Afterwards, the slides were incubated in an electrophoresis solution (NaOH 300 mM; EDTA 1 mM; pH 13.5) for 20 minutes at 4°C and the electrophoresis was performed (25 V; 300 mA; 7 W) for 20 minutes. All the steps were performed in the dark until this moment. After electrophoresis, the slides were washed in a neutralizing solution (Tris-HCl 400 mM; pH 7.5) three times, washed with distilled water, and left to dry. The slides were rehydrated and fixed (Trichloroacetic acid 15%; ZnSO4 5%; glycerol 5%), washed three with distilled water, and left to dry. Afterwards, the rehydrated slides were stained (Na2CO3 5%; NH4NO3 0.1%; AgNO3 0.1%; H4[W12SiO40] 0.25%; formaldehyde 0.15%). The slides were immersed in acetic acid 1%, washed, and left to dry.
One hundred cells randomly selected were analyzed in each sample according to tail size and intensity in five classes. The damage score for each cell can range between 0 (no damage) and 4 (maximum damage), according to Figure 1. Damage index (DI) was defined as follows: DI = 1n1 + 2n2 + 3n3 + 4n4, where n1 represents the number of cells with damage level 1, n2 represents the number of cells with damage level 2, n3 represents the number of cells with damage level 3, and n4 represents the number of cells with damage level 4. At least two different individuals analyzed the slides under blind conditions.

[3] = 3 hours at 37°C, compared to the control groups

Row | SMILES | decrease in leucocyte viability (human leucocytes [1]; [3]) | effect on cell viability at lower concentrations (human leucocytes [1]; 3 hours at 37°C) | damage index (DI) of DNA (human leucocytes [2]; 50 μM) | damage index (DI) of DNA (human leucocytes [2]; 5 and 10 μM) | decrease in leucocyte viability (human leucocytes [1]; human, 3 h, pH 7.4)
1 | c1ccc([Se][Se]c2ccccc2)cc1 [(PhSe)2, Diphenyl Diselenide] | about 20% | did not cause significant decrease in cell viability | significant increase in DI | did not cause DNA damage | 
2 | c1ccc([Te][Te]c2ccccc2)cc1 [(PhTe)2, Diphenyl Ditelluride] | about 25% | did not cause significant decrease in cell viability | significant increase in DI | increased DI | 
3 | O=c1c2ccccc2[se]n1-c1ccccc1 [ebselen, Ebselen] |  |  | significant increase in DI | did not cause DNA damage | about 60%
